Experimental findings from ChEMBL document CHEMBL1144908, “5-HT4 receptor ligands: applications and new prospects” (J Med Chem, 2003) are described below.

Assay [1] has as its target T1, 5-hydroxytryptamine receptor 3A (Homo sapiens, UniProt P46098).
T1 sequence (P46098 whole entry): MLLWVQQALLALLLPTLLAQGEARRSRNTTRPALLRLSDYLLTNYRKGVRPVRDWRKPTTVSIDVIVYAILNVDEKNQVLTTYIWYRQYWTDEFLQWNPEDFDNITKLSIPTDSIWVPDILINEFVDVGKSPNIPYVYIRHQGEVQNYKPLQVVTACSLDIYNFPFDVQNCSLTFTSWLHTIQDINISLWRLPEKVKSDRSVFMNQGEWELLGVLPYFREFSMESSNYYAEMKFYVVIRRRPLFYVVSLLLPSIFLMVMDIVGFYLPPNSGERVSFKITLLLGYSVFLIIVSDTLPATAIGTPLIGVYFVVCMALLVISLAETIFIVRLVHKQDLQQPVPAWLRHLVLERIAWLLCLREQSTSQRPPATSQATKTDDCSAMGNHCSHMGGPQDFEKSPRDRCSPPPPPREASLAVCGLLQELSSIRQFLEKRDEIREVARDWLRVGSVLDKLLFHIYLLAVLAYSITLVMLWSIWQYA
Nature of the assay: (§1) Compound was tested for 5-hydroxytryptamine 3 receptor binding affinity.

For assay [2], the target named is 5-hydroxytryptamine receptor 4 (Rattus norvegicus, UniProt Q62758). Put plainly: Efficient 5-hydroxytryptamine 4 agonist in the rat tunica muscularis mucosae. The class given is functional, tissue-based, Muscularis mucosa.
Assay [3] concerns the target 5-hydroxytryptamine receptor 4 (Rattus norvegicus) (UniProt Q62758). Put plainly: Tested for affinity towards 5-hydroxytryptamine 4 receptor in relaxation of rat oesophagus.
Assay [4] has as its target T2, 5-hydroxytryptamine receptor 4 (Homo sapiens, UniProt Q13639). Nature of the assay: Tested for affinity towards 5-hydroxytryptamine 4 receptor.
Assay [5] has as its target 5-hydroxytryptamine receptor 4 (Mus musculus) (UniProt P97288). Put plainly: Tested for 5-hydroxytryptamine 4 binding affinity against cisapride.
Assay [6] has the same target. Nature of the assay: Tested for 5-hydroxytryptamine 4 binding affinity against zacopride.
Assay [7] shares this target. Nature of the assay: Tested for 5-hydroxytryptamine 4 binding affinity against renzapride.
For assay [8], the target named is 5-hydroxytryptamine receptor 4 (Cavia porcellus) (UniProt O70528). Put plainly: Tested for affinity towards 5-hydroxytryptamine 4 receptor in electrically stimulated longitudinal muscle preparation of guinea pig ileum. The class given is tissue-based.
Another assay is filed under the species Cavia porcellus. Put plainly: Tested for inhibitory activity against 5-HT induced contractions of guinea pig ileum. The format is functional.
The target of assay [9] is 5-hydroxytryptamine receptor 4 (Cavia porcellus) (UniProt O70528). Put plainly: Tested for affinity towards 5-hydroxytryptamine 4 receptor in guinea pig distal colon preparation. The class given is tissue-based.
In assay [10] the target is T1, 5-hydroxytryptamine receptor 3A. Nature of the assay: Tested for 5-hydroxytryptamine 3 receptor agonist activity. The class given is functional.
A short description of assay [11]: Tested for potency against electrically stimulated myenteric plexus. The format is functional.
For a further assay, the species on record is Rattus norvegicus. Put plainly: Tested for affinity towards 5-HT receptor in relaxation of carbachol contracted rat oesophaga muscularis. The class given is functional.
The target of assay [12] is T2, 5-hydroxytryptamine receptor 4. Nature of the assay: (§2) Tested for 5-hydroxytryptamine 4 receptor antagonist activity. The class given is functional.
The target is the same in assay [13]. Described as §2. The class given is functional. This is another data set of the same source.
The target in assay [14] is 5-hydroxytryptamine receptor 4 (Cavia porcellus, UniProt O70528). Nature of the assay: Tested for affinity against 5-hydroxytryptamine 4 receptor in the myenteric plexus of the guinea pig ileum. The format is tissue-based.
The target in assay [15] is T2, 5-hydroxytryptamine receptor 4. The description is as §2. The format is functional. This is another data set of the same source.
Assay [16] concerns the target Serotonin 3 (5-HT3) receptor. The assay is described as §1. The class given is protein-complex assay.
Assay [17] has as its target Serotonin 3 (5-HT3) receptor. Put plainly: Tested for 5-hydroxytryptamine 3 receptor antagonist activity. The class given is functional.

T2 sequence (Q13639 whole entry): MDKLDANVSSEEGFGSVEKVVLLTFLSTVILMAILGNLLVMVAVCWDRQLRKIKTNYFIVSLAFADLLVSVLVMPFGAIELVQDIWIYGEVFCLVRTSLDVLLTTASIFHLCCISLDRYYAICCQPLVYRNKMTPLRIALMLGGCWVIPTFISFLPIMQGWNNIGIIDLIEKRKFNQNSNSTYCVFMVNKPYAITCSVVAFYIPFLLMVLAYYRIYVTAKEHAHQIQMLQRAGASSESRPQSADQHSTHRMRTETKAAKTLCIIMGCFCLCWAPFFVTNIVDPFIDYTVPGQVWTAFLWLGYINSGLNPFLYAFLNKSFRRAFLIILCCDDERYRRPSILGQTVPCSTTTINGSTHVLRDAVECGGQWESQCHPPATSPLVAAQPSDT
5-hydroxytryptamine receptor 4 (Mus musculus), sequence (P97288 whole entry, looked up): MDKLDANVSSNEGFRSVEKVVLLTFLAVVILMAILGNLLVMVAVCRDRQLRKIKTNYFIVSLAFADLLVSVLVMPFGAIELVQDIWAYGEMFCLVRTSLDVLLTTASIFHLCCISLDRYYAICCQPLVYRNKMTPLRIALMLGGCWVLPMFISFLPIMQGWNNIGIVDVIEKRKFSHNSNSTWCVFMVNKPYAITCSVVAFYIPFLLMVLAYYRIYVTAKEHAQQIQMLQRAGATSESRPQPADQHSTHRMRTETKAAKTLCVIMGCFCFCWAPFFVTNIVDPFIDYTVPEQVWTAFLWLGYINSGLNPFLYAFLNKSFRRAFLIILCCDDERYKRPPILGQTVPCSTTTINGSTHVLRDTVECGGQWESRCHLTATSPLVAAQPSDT
5-hydroxytryptamine receptor 4 (Cavia porcellus), sequence (O70528 whole entry): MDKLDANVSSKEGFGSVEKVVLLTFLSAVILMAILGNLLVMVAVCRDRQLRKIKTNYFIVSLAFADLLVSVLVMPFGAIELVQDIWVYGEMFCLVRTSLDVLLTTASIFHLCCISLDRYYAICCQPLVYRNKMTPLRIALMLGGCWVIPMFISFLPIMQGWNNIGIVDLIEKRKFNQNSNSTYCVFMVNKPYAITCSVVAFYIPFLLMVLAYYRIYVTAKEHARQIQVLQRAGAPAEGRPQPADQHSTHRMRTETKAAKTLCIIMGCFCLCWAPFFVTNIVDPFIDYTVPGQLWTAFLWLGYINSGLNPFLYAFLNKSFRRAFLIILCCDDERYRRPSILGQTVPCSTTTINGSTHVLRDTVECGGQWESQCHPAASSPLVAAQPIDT
5-hydroxytryptamine receptor 4 (Rattus norvegicus), sequence (Q62758 whole entry): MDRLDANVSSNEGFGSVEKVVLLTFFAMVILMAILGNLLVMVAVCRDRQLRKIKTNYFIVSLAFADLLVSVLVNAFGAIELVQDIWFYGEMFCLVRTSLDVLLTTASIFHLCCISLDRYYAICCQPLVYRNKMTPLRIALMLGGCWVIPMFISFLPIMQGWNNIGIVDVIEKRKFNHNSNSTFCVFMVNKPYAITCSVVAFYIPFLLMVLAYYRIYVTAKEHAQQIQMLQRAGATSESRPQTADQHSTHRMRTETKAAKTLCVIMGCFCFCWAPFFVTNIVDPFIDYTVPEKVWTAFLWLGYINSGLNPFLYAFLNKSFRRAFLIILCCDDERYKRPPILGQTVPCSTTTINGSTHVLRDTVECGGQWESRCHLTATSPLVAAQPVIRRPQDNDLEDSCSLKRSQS
5-hydroxytryptamine receptor 4 (Rattus norvegicus, UniProt Q62758), sequence (Q62758 whole entry): as above
5-hydroxytryptamine receptor 4 (Cavia porcellus, UniProt O70528), sequence (O70528 whole entry): as the sequence (O70528 whole entry) above

As a reminder, the Ki is the dissociation constant of the complex between target and ligand, obtained from inhibition or displacement. A higher Ki goes with a looser hold on the target. Broadly, the EC50 is the concentration at which the effect is half-maximal. A higher EC50 goes with a less potent agent. As to `COc1cc(N)c(Cl)cc1C(=O)NC[C@@H]1CCN2CCC[C@@H]12`, the affinity in assay [1] corresponds to a Ki of 152 nM. Moreover, the EC50 in assay [2] amounted to 23.7 nM.

In [3], `COc1cc(N)c(Cl)cc1C(=O)CCC1CCN(CCNS(C)(=O)=O)CC1` had an Activity of 8.6 pEC50.

Regarding `CCCCN1CCC(CNC(=O)c2cc(Cl)c(N)c3c2OCCO3)CC1`, the Activity in assay [4] turned out to be 9 pKa.

Regarding `COc1cc(N)c(Cl)cc1C(=O)NC1CCN2C(C)CCCC2C1` (centres undefined) [BRL-20627], the EC50 was 72.4 nM in [5], 1120 nM in assay [6] and 126 nM in assay [7].

With `CCCCCNC(=N)N/N=C/c1c[nH]c2ccc(OC)cc12`, in assay [8], the Activity is 6.9 pD2.

`CCCCCN(C)C(=N)N/N=C/c1c[nH]c2c(C)cc(OC)cc12` registered an Activity in the assay filed under Cavia porcellus of 8.4 pA2.

For `O=C(NCC1CCN2CCCCC2C1)c1c2n(c3ccccc13)CCCO2` (centres undefined), in assay [9], the Activity worked out at 9.5 pIC50.

The compound `N=C(N)N/N=C/c1c[nH]c2ccc(O)cc12` showed an Activity in [8] of 8.8 pD2.

The compound `CCCCCNC(=N)N/N=C/c1c[nH]c2ccc(O)cc12` gave an Activity in [8] of 9.3 pD2.

Consider `Nc1cc2c(cc1Cl)C(=O)NC1CCN(CCOCCO2)CC1`, for which, in assay [10], the Ki turned out to be 53.2 nM. This compound yielded an EC50 in assay [11] of 69 nM.

Turning to `COc1cc(COc2cc(N)c(Cl)cc2C(=O)CCC2CCN(CCNS(C)(=O)=O)CC2)cc(OC)c1`, the Activity in the assay filed under Rattus norvegicus is listed as 9.2 pKi.

`CC(C)n1c(=O)n(C(=O)NCCN2CCN(C)CC2)c2ccccc21` displayed an Intrinsic activity in [12] of 0.94. For the same compound, affinity in [13] was put at a Ki of 91.9 nM.

As to `CCOc1cc(N)c(Cl)cc1C(=O)NCC1CN(Cc2ccc(F)cc2)CCO1` (centres undefined) [MOSAPRIDE], in [14], the Ki came out at 84 nM. This counts as double-digit nanomolar.

As to `CC(C)N1CCN(CCNC(=O)n2c(=O)n(C3CC3)c3ccccc32)CC1`, the Ki in [13] is 6.7 nM; in assay [15], 16.6 nM.

Turning to `COc1cc(COc2cc(N)c(Cl)cc2C(=O)CCCCN2CCCCC2)cc(OC)c1`, the Activity in the assay listed under Rattus norvegicus came out at 8.5 pKi.

With `COc1cc(N)c(Cl)cc1C(=O)NC1CC2CCC(C1)N2C` (centres undefined), the 50% effective concentration (EC50) is 72.4 nM in [5], 1120 nM in [6] and 126 nM in assay [7].

In turn, `COc1cc(N)c(Cl)cc1C(=O)NC1CCN(CCCOc2ccc(F)cc2)CC1OC` (centres undefined) [CISAPRIDE] yielded an inhibitory constant (Ki) in assay [16] of 152 nM.

Take `CCCCN1CCC(COC(=O)c2c3n(c4ccccc24)CCCO3)CC1`: the Activity in [9] was 10.6 pIC50.

`CCCCN1CCC(CCC(=O)c2cc(Cl)c(N)cc2OC)CC1` registered an Activity in [3] of 8.4 pEC50.

In assay [9], `CCCCN1CCC(CNC(=O)c2c3n(c4ccccc24)CCCO3)CC1` displayed an Activity of 9.2 pIC50.

`CNC1(CNC(=O)c2cc(Cl)c(N)cc2OC)CCCC1` displayed a Ki in [17] of 9 nM.
